Assay results published in US20030003086A1, “Modulation of MHC class I antigen presentation” (priority 2001, published 2003).

Experiments:
TOP [1] = assay: Generation of SIINFEKL+Kb complexes in Kb-Cos7 cells loaded with ovalbumin and TOP inhibitor by hypertonic lysis of pinosomes (25D1 staining, flow cytometry); assay type: cell-based; conditions: Kb-Cos7 cells not overexpressing TOP; ovalbumin 40 mg/ml, inhibitor 1 mM, two hours; FIG. 3C
From the text: (§1) To test whether TOP can influence antigen presentation, the effects of transiently overexpressing TOP in vivo on the presentation of SIINFEKL (SEQ ID NO:5) peptide produced in the cytoplasm from a synthetic minigene were studied. In one set of experiments, expression vectors encoding TOP and SIINFEKL were transiently co-transfected into Kbexpressing COS7 cells. The presentation of SIINFEKL on MHC class I Kb molecules was detected by staining with a SIlNFEKL+Kb-specific monoclonal antibody (25D1) (Porgador et al., 1997, Immunity. 6:715-726) and quantified by flow cytometry. Briefly, Kb-Cos7 cells were co-transfected with a SIINFEKL minigene in pCDNA3 and a pTracer plasmid encoding green fluorescence protein (GFP), GFP+human TOP or GFP+ORP 150 (a control protein) using FuGENE™ (Roche Applied Science). After 48 hours, the cells were stained with an anti-SIINFEKL+Kb specific nAb (25D1) (Porgador et al., 1997, supra) followed by pbycoerythrin-conjugated anti-immunoglobulin antibody and fluorescence was measured by flow fluorocytometry. […]
(§2) The data of FIG. 3C were generated in experiments in which ovalbumin (40 mg/ml) admixed with either the TOP inhibitor cPP-AAF-pAB (1 mM) or vehicle (DMSO) was introduced into pTracer-transfected Kb-Cos7 cells. After two hours the presence of SIINFEKL+Kb complexes was determined by immunofluorescence as described for FIG. 1A (supra). […]

TOP [2] = target: T1, TOP (Homo sapiens, UniProt P52888); assay: as above; assay type: cell-based; conditions: cells transfected with TOP
T1 construct: was introduced into pTracer-transfected Kb-Cos7 cells; endogenous in cells; host or cells: Kb-Cos7 cells transfected with pTracer (GFP) only
From the text: as §1, §2

living cells = conditions: cited from earlier work
pure PSA = pure PSA (Homo sapiens, UniProt P55786); assay: Degradation of FAPGNYPAL by pure PSA; assay type: biochemical; conditions: PSA at concentrations similar to those found in HeLa cells
Sequence of pure PSA (P55786 whole entry): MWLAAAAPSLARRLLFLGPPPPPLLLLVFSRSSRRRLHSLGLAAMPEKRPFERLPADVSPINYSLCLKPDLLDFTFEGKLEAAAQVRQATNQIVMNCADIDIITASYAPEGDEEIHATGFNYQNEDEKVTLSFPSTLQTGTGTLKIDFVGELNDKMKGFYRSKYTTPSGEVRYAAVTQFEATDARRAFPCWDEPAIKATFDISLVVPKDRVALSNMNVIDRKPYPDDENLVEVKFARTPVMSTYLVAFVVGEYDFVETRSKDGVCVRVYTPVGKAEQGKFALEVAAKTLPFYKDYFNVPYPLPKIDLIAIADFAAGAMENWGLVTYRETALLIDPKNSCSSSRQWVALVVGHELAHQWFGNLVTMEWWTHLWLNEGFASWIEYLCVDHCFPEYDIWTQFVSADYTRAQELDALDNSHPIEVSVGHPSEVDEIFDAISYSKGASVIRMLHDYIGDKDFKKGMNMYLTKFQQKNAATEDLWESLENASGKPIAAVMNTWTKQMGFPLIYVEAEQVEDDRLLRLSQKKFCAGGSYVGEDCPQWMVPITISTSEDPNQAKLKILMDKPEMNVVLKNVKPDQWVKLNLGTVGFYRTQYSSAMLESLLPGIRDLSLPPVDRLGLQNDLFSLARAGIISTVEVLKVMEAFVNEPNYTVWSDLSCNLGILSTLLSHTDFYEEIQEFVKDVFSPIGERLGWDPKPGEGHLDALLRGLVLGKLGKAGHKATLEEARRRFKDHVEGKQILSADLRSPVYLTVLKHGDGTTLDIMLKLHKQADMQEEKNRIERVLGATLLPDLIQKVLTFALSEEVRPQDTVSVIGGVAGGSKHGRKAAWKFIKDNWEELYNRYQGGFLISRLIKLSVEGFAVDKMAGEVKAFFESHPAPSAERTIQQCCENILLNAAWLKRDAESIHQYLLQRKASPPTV

T1 sequence (P52888 whole entry): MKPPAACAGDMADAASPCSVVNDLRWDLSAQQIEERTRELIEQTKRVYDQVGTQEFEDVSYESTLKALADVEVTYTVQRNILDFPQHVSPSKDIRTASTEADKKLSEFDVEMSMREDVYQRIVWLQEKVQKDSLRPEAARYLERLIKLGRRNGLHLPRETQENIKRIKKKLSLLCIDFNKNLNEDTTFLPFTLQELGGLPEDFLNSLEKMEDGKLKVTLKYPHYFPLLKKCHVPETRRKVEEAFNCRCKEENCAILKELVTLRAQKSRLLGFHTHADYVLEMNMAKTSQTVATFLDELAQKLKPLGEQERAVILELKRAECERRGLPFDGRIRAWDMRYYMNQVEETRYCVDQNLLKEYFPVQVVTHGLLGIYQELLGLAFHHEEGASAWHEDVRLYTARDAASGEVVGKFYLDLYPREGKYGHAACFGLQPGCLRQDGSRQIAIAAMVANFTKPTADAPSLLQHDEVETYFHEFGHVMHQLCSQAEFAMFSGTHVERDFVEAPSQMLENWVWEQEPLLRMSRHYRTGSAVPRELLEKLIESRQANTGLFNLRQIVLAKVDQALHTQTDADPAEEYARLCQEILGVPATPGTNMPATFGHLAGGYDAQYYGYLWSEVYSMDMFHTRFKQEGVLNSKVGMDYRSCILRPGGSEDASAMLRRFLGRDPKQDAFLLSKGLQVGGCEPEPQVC

| Substance | generation of SIINFEKL-Kb complexes (MHC class I presentation) (TOP [1]) | generation of SIINFEKL-Kb complexes (MHC class I presentation) (TOP [2]) | entry into living cells / cell cytosol (living cells) | susceptibility to degradation by pure PSA (pure PSA) |
| --- | --- | --- | --- | --- |
| N-(1(RS)-carboxy-3-phenylpropyl)-Ala-Ala-Tyr-p-aminobenzoate [cPP-AAF-PAB] | enhanced | enhanced | does not enter living cells | – |
| FAPGNYPAL [antigenic peptide, Sendai Virus NP, residues 324-332] | – | – | – | particularly susceptible to degradation |
